One block for each compound: values may come before it.
Tests used:
[1] = Induction of Cholesterol accumulation in human HepG2 cells assessed as fold increase in LDL-cholesterol level at 10 uM after 48 hrs; format: functional
[2] = target: T1, Oxysterols receptor LXR-alpha (Homo sapiens, UniProt Q13133); test: Binding affinity to full-length human LXRalpha by surface plasmon resonance assay
T1 sequence (Q13133 whole entry): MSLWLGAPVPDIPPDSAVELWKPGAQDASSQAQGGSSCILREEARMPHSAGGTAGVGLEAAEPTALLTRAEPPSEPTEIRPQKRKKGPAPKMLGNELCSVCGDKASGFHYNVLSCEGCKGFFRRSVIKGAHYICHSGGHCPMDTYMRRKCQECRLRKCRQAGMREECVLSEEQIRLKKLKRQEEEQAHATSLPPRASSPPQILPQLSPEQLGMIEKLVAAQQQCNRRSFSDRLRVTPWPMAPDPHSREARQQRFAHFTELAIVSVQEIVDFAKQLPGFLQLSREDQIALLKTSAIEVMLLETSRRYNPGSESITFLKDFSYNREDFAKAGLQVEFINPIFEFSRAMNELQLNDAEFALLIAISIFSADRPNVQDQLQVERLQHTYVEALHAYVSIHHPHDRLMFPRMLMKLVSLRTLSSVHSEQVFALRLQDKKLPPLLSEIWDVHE

[3] = Hepatotoxicity in renal carcinoma xenografted C57BL/6 mouse assessed as fold increase in plasma ALT at 0.8 mg/kg, ip; format: toxicity, organism-based; details: in vivo
[4] = Hepatotoxicity in renal carcinoma xenografted C57BL/6 mouse assessed as fold increase in plasma AST at 0.8 mg/kg, ip; format: toxicity, organism-based; details: in vivo

SMILES: CC(C)c1c(C(=O)Nc2ccccc2)c(-c2ccccc2)c(-c2ccc(F)cc2)n1CC[C@@H](O)C[C@@H](O)CC(=O)O [ATORVASTATIN]
- fold change (FC) [1]: 2.4

SMILES: O=C(O)Cc1cccc(OCCCN(Cc2cccc(C(F)(F)F)c2Cl)CC(c2ccccc2)c2ccccc2)c1
- Kd [2]: 6.97 µM

- Kd [2]: 7.22 µM
SMILES: C/C=C(\C)C(=O)[C@H](C)/C=C(C)/C=C/C/C(C)=C/Cc1nc(OC)c(OC)c(O)c1C

SMILES: CNC(=O)c1cc(Oc2ccc(NC(=O)Nc3ccc(Cl)c(C(F)(F)F)c3)cc2)ccn1 [SORAFENIB]
- fold change (FC) [3]: 4.3
- fold change (FC) [4]: 2.3
